For assay [1], the system named is MCF-7 cells. As to the kind of experiment: MTT cell viability assay. The class given is cell-based. Conditions: Homo sapiens, MCF7, 24 h, read-out: concentration for 50% growth inhibition (IC50). As for the experimental part:
(§1) To determine the concentration of rolipram required for 50% growth inhibition (IC50) of MCF-7 and MDA-MB-231 cells, MTT (3-[4,5-dimethylthiazol-2-yl]-2,5 diphenyl tetrazolium bromide) assay, which relies on the reduction of MTT to form purple-colored formazan crystals by mitochondrial dehydrogenases, was performed ([27]). Cells were seeded in a 96-well plate at a density of 3 × 10^3 cells/well and treated with increasing concentrations of rolipram ranging from 1 to 80 μM. MTT (G Biosciences; catalog no.: RC1130) was added after 24 h of treatment, formazan crystals were dissolved in 100 μl of DMSO, and absorbance measured at 595 nm using the BioRad iMark Microplate Reader (RRID: SCR_023799). The percentage of metabolically active cells was calculated with respect to untreated control cells, negating the blank reading. Graphs were plotted for the percentages of viable cells against the concentrations of rolipram to obtain linear trend-line equations, which were used to derive the IC50 concentration of rolipram for each cell lines. The IC50 doses were used for all subsequent experiments ([28]).
In general terms: Formazan colour is commonly taken as a measure of viable cells.

The subject of assay [2] is MDA-MB-231 cells. As to the kind of experiment: MTT cell viability assay. The format is cell-based. The conditions noted are these: Homo sapiens, 24 h, read-out: concentration for 50% growth inhibition (IC50). Here is the method:
as §1

The subject of assay [3] is intracellular cAMP in MCF-7 cells. Kind of assay: cAMP assay (ELISA-based kit), intracellular cAMP. Conditions: 24 h, untreated control 14.1 pmol/ml. The format is cell-based, human. Here is the method:
(§2) To determine the intracellular level of cAMP, a […] ELISA-based cAMP assay kit was used, which relies on preparation of a standard curve for cAMP (pmol/ml) and denoting all the experimental values from the standard curve, and finally expressing as mean values with standard errors of triplicate samples per treatment group. The assay kit was obtained from Cayman Chemicals (item no.: 581001), and the assay was performed following the manufacturer’s protocol after washing the cells with 1X PBS (composition: 137 mM NaCl, 2.7 mM KCl, 10 mM Na2HPO4, and 1.8 mM KH2PO4) and treating with 0.1 M HCl for 20 min and sonicating the cells for lysis. In brief, the cell lysate was added to the 96-well plate precoated with mouse monoclonal anti-rabbit IgG and which also contained cAMP–acetylcholinesterase (cAMP tracer) that competes with the free cAMP in the cell lysate to bind to the cAMP-specific rabbit antibody. Following several washes, the absorbance of the color generated because of addition of acetylcholinesterase substrate is measured at 412 nm by Bio-Rad iMark Microplate Reader (RRID: SCR_023799), which is inversely proportional to the amount of free cAMP present in the cell lysate ([29]).
For orientation: Cyclic AMP is a second messenger, typically raised through Gs and lowered through Gi signalling.

Assay [4] has as its system intracellular cAMP in MDA-MB-231 cells. Kind of assay: cAMP assay (ELISA-based kit), intracellular cAMP. The format is cell-based, human. Conditions: 24 h, untreated 12.55 pmol/ml. As for the experimental part: as §2
Assay [5] relates to MCF-7 cells. As to the kind of experiment: Wound healing assay. The format is cell-based, human. As for the experimental part:
(§3) Cells were seeded and allowed to attain a 2D monolayer of cells. […] The percentage of open area was evaluated using Tscratch software (CSElab, Koumoutsakos group at ETH Zurich, https://github.com/cselab/TScratch) (RRID: SCR_014282).

In assay [6] the test system is MDA-MB-231 cells. Kind of assay: Wound healing assay. The format is cell-based, human. As for the experimental part: as §3
The subject of assay [7] is 4T1 mice breast carcinoma cells, mammary fat pad tumor. Kind of assay: Solid tumor in mice, tumor weight and volume. The format is in vivo, BALB/c mice. The conditions noted are these: vs untreated tumor. Here is the method: (§4) Solid tumors were developed in BALB/c mice (n = 3) except the control group (group I) by injecting 1 × 10^4 viable 4T1 (RRID: CVCL_0125) mice breast carcinoma cells (resuspended in 50 μl of PBS) into the inguinal fourth mammary fat pad, and the tumor was allowed to develop for 14 days ([37], [38]). Mice were randomly divided into three groups, viz., untreated tumor (group II), mice treated intraperitoneally with 1 mg//kg bodyweight of rolipram (group III), and mice receiving 5 mg/kg bodyweight of rolipram, intraperitoneally (group IV) ([39], [40]). After 14 days, the mice were sacrificed. Lung, kidney, liver, serum, and the tumors were collected for further experiments ([15]).
Weight of mammary fat pad of mice from group I and weight of tumors from groups II, III, and IV were measured using digital fine balance. Width and length of the tumors obtained from mice of groups II, III, and IV were measured using digital Vernier caliper. The volume was measured by the formula V = half × (W × W × L), where V is the volume, W is the width, and L is the length of the tumors ([15], [41]).

The subject of another assay is PKA. Kind of assay: Immunohistochemistry of tumor tissue, PKA. The format is in vivo, BALB/c mice. Here is the method: as §4
Mice mammary fat pad and mammary tumor tissues were processed as for histology, and 5 μm-thick sections were mounted on glass slides. The tissue sections were deparaffinized with xylene and hydrated with […] grades of alcohols (100% to 70%). Rehydrated sections were equilibrated in PBS. Antigen retrieval was performed by boiling the sections in a 0.1 M sodium citrate buffer (pH 6.0) for 10 min. […] The frequency (cell count) of positive and negative cells as well as the mean absorbance of the positive cells were plotted using MatPlotLib (RRID: SCR_008624), a Python (RRID: SCR_008394) 2D plotting library.

[8] abbreviates: 1 mg/kg bodyweight i.p., 14 days of treatment.
[9] abbreviates: 5 mg/kg bodyweight i.p., 14 days.

Consider `COc1ccc(C2CNC(=O)C2)cc1OC1CCCC1` (stereo not shown) [rolipram, Rolipram], for which the IC50 in the assay with MCF-7 cells [1] was determined as 38 µM; in the assay with MDA-MB-231 cells [2] it was 53 µM. Moreover, the “intracellular cAMP level” value in assay [3] (MCF-7, IC50 dose) came out at 43.12 pmol/mL; in assay [3] (MCF-7, half IC50 dose), 24.02 pmol/mL; in assay [4] (MDA-MB-231, IC50 dose) it was 37.41 pmol/mL; in assay [4] (MDA-MB-231, half IC50 dose) it was 28.35 pmol/mL. Further, the “percentage of open area (wound)” value with MCF-7 cells [5] (MCF-7, IC50 dose, up to 48 h, untreated 45% to 34% (24 h) and 22% (48 h)) is recorded as “failed to significantly reduce the percentage of open area”; in the assay with MDA-MB-231 cells [6] (MDA-MB-231, IC50 dose, 24 and 48 h, untreated 33% to 20% and 12%) it was “no significant change”. Also, the cell migration capability entry with MCF-7 cells [5] (MCF-7, in the presence of TAK-243 (0.1 μM)) was “failed to retard the cell migration capability”; in the assay with MDA-MB-231 cells [6] (MDA-MB-231, in the presence of TAK-243 (0.1 μM)), “failed to retard the cell migration capability”. Further, the “reduction of tumor volume” value is on record as “twofold” in assay [7] (setting [8]) and 2.8 fold in assay [7] (setting [9]). The “reduction of tumor weight” value in assay [7] (setting [8]) is listed as “twofold”; in assay [7] (setting [9]), 3.4 fold. The “increase of PKA-positive cells compared with tumor tissues” value in the assay with PKA (1 mg/kg bodyweight) and in the assay on PKA (5 mg/kg bodyweight) was around 1.5 fold in each case.

These data come from publication PMC11879692, “PDE4 inhibitor rolipram represses hedgehog signaling via ubiquitin-mediated proteolysis of GLI transcription factors to regress breast cancer” (The Journal of Biological Chemistry, 2025).
